Reference: ChEMBL document CHEMBL1155282, “Design, synthesis and preliminary biological evaluation of N-hydroxy-4-(3-phenylpropanamido)benzamide (HPPB) derivatives as novel histone deacetylase inhibitors” (Eur J Med Chem, 2009)

Experiments:
[1] = target: Histone deacetylase (HDAC1 and HDAC2) (Homo sapiens, UniProt Q13547+Q92769); assay: Inhibition of HDAC1/HDAC2 from human Hela nuclear extracts using [3H]acetylated histone peptide by colorimetry; type: protein assay
[2] = system: HCT-116; assay: Antiproliferative activity against human HCT116 cells after 2 days by MTT assay; type: functional, cell-based; conditions: HCT-116, 48 h
[3] = system: A549; assay: Antiproliferative activity against human A549 cells after 2 days by MTT assay; type: functional, cell-based; conditions: A549, 48 h
[4] = system: HCT-116; assay: Cell cycle arrest in human HCT116 cells assessed as accumulation at G1 phase at 1 umol/L by flow cytometry; type: functional
[5] = system: HCT-116; assay: Cell cycle arrest in human HCT116 cells assessed as accumulation at S phase at 1 umol/L by flow cytometry; type: functional
[6] = system: HCT-116; assay: Cell cycle arrest in human HCT116 cells assessed as accumulation at G2 phase at 1 umol/L by flow cytometry; type: functional

SMILES	IC50 [1] [nM]	other results
CCC(C)Oc1ccc(CCC(=O)Nc2ccc(C(=O)NO)cc2)cc1OC (centres undefined)	2200	–
CCCOc1ccc(CCC(=O)Nc2ccc(C(=O)NO)cc2)cc1OC	1700	–
COc1cc(CCC(=O)Nc2ccc(C(=O)NO)cc2)ccc1OCc1ccc(C)cc1	1500	–
COc1cc(CCC(=O)Nc2ccc(C(=O)NO)cc2)ccc1OCc1ccc(Br)cc1	800	–
COc1cc(CCC(=O)Nc2ccc(C(=O)NO)cc2)ccc1OCCC(C)C	2900	–
CCOc1ccc(CCC(=O)Nc2ccc(C(=O)NO)cc2)cc1OC	2900	–
COc1cc(CCC(=O)Nc2ccc(C(=O)NO)cc2)ccc1OCc1cccc(C)c1	2600	–
COc1cc(CCC(=O)Nc2ccc(C(=O)NO)cc2)ccc1OCc1cccc(Cl)c1	1600	–
COc1cc(CCC(=O)Nc2ccc(C(=O)NO)cc2)ccc1OCc1ccc(Cl)cc1	1400	–
COc1cc(CCC(=O)Nc2ccc(C(=O)NO)cc2)ccc1OC1CCCC1	4000	–
COc1ccc(CCC(=O)Nc2ccc(C(=O)NO)cc2)cc1OC	3300	–
COc1cc(CCC(=O)Nc2ccc(C(=O)NO)cc2)ccc1OCc1ccccc1	700	IC50 [2]: 120 nM; IC50 [3]: 600 nM
COc1cc(CCC(=O)Nc2ccc(C(=O)NO)cc2)ccc1OCc1cccs1	300	IC50 [2]: 30 nM; IC50 [3]: 80 nM; Activity [4]: 28.51%; Activity [5]: 24.33%; Activity [6]: 47.16%
COc1cc(CCC(=O)Nc2ccc(C(=O)NO)cc2)ccc1OCc1ccccn1	3900	–
COc1cc(CCC(=O)Nc2ccc(C(=O)NO)cc2)ccc1OCc1ccccc1Cl	1200	–
O=C(CCc1ccc2c(c1)OCO2)Nc1ccc(C(=O)NO)cc1	400	IC50 [2]: 60 nM; IC50 [3]: 500 nM; Activity [4]: 17.09%; Activity [5]: 34.11%; Activity [6]: 48.8%
COc1cc(CCC(=O)Nc2ccc(C(=O)NO)cc2)ccc1OCc1ccccc1Br	600	IC50 [2]: 100 nM; IC50 [3]: 600 nM
COc1cc(CCC(=O)Nc2ccc(C(=O)NO)cc2)ccc1OCc1cccc(Br)c1	900	–
COc1cc(CCC(=O)Nc2ccc(C(=O)NO)cc2)ccc1OCc1ccccc1C	1800	–
CCCCOc1ccc(CCC(=O)Nc2ccc(C(=O)NO)cc2)cc1OC	1600	–
